According to publication PMC7377239, “Cardiovascular Effects of Polychlorinated Biphenyls and Their Major Metabolites” (Environmental Health Perspectives, 2020):
Where two headings read alike, the source gives them in different places.

Tested on: iCell cardiomyocytes (human iPSC-derived cardiomyocytes)
Experiment: High-content imaging of cytotoxicity and mitochondrial integrity in iPSC-CMs
Format: cell-based
Details: Homo sapiens; for viability at 0.01 µM / activity at 0.01 µM / viability at 0.1 µM / activity at 0.1 µM / viability at 1 µM / activity at 1 µM / viability at 10 µM / activity at 10 µM / viability at 100 µM / activity at 100 µM: 0.00 µM = 100.00; for viability at 0.1 µM / activity at 0.1 µM: 0.10 µM
Protocol: Details on cardiomyocyte cell culture are described in detail elsewhere ([Grimm et al. 2015b]; [Sirenko et al. 2013a]). Briefly, tissue-culture treated 384 well plates were gelatinized with 25μL per well of 0.1% (w/v) gelatin in water for 2 h at 37°C and 5% CO2 . Individual vials of cells were thawed for 4 min in a water bath maintained at 37°C. Thawed cells were resuspended in 10ml plating medium containing 1:500 (vol/vol) penicillin/streptomycin solution at room temperature (RT). Live cell counts for each cell suspension were determined by trypan blue staining and cells were further diluted to provide final cell densities of 2×10^5 viable cells/ml. Thus, 5,000 cells suspended in 25μL media were transferred per well after the gelatin solution had been discarded. Cell culture plates were rested for 30 min at RT before they were incubated for 48 h at 37°C and 5% CO2 . Then, a media exchange with 30μL of fresh maintenance medium containing 1:500 (vol/vol) penicillin/streptomycin solution was performed, and cell media were subsequently changed every 48 h for 12 d. On the experiment day, the medium was completely exchanged with either 25μL (for Ca^2+ flux assay) or 40μL (for imaging) of fresh medium.
Cytotoxicity and effects on mitochondrial integrity of various PCBs and PCB metabolites in induced pluripotent stem cell-CMs (iPSC-CMs) were assessed using high-content cellular imaging in ImageXpress® Micro Confocal (Molecular Devices) as detailed in ([Grimm et al. 2015b]). Cells in 40μL maintenance media were treated with 10μL of 5× chemical solutions to provide test chemicals at final assay concentrations ranging from 0.01 to 100μM . […] Next, sample wells were treated with 50μL equilibrated 2× concentrated staining solution (maintenance medium containing Hoechst 33342, 4μg/mL and MitoTracker™ Orange, 0.4μM ). Microplates were then incubated for 15 min at 37°C and 5% CO2 before cells were washed twice with 30μL maintenance medium. All media were aspirated and discarded, and cells were fixed with […] of a 3.7% formaldehyde solution for 15 min at 37°C and 5% […] . Fixed cells were washed 3× with 25μL PBS before image acquisition using the DAPI (Hoechst 33342) and Cy3 (MitoTracker™ Orange) filters at 10× magnification on the ImageXpress® Micro Confocal high-content confocal microscope (Molecular Devices). The multiwavelength cell scoring applications module in MetaXpress® was used to analyze acquired images.
Phenotypic responses were quantitatively assessed using concentration–response modeling as detailed elsewhere ([Sirenko et al. 2017]). Briefly, phenotypic readouts were normalized to vehicle controls and fit to a four-parameter logistic model in R studio software (version 3.1.1; R Development Core Team). Following EPA guidance on dose–response modeling, a cutoff of one standard deviation across means of vehicle control (i.e., 0.5% vol/vol DMSO in cell culture media) wells was applied to determine the point-of-departure (POD) values ([U.S. EPA 2012]). In the absence of a concentration–response, the highest tested concentration (i.e., 100μM ) was assigned as “no observable adverse effect level.” The concentration–response assessment R script, as well as templates for vehicle and concentration–response data, are available as a supplement to Sirenko et al. ([2017]). The ability of physicochemical properties to predict differences in PODs were evaluated by multiregression and mixed-effects modeling using R.

[1] = Cardiomyocyte, 1.5 h, read-out: cm.cam.90min
[2] = Cardiomyocyte, 1.5 h, read-out: cm.mii.90min
[3] = Cardiomyocyte, 1.5 h, read-out: cm.mito.90min
[4] = Cardiomyocyte, 1.5 h, read-out: cm.tc.90min
[5] = Cardiomyocyte, 24 h, read-out: cm.cam.24hrs
[6] = Cardiomyocyte, 24 h, read-out: cm.mii.24hrs
[7] = Cardiomyocyte, 24 h, read-out: cm.mito.24hrs
[8] = Cardiomyocyte, 24 h, read-out: cm.tc.24hrs

**Q.** With COc1ccc(-c2cccc(Cl)c2)cc1Cl [4-OMe PCB11] as the molecule, how does the viability at 0.01 µM [1] read?
**A.** The viability at 0.01 µM was 89.1%.

**Q.** And the activity at 0.01 µM [2]?
**A.** Its activity at 0.01 µM is 112%.

**Q.** And the activity at 0.01 µM [3]?
**A.** The activity at 0.01 µM was 87.5%.

**Q.** What about the viability at 0.01 µM [4] of the same molecule?
**A.** The viability at 0.01 µM was 89.6%.

**Q.** What about the viability at 0.1 µM [1] of the same molecule?
**A.** The viability at 0.1 µM was 101%.

**Q.** And the activity at 0.1 µM [2]?
**A.** Its activity at 0.1 µM is 93.8%.

**Q.** And the activity at 0.1 µM [3]?
**A.** The activity at 0.1 µM was 101%.

**Q.** And the viability at 0.1 µM [4]?
**A.** Its viability at 0.1 µM is 101%.

**Q.** What about the viability at 1 µM [1] of the same molecule?
**A.** Its viability at 1 µM is 96.5%.

**Q.** What about the activity at 1 µM [2] of the same molecule?
**A.** The activity at 1 µM was 94.7%.

**Q.** And the activity at 1 µM [3]?
**A.** The activity at 1 µM was 96.6%.

**Q.** And the viability at 1 µM [4]?
**A.** The viability at 1 µM was 96.7%.

**Q.** And the viability at 10 µM [1]?
**A.** Its viability at 10 µM is 99.9%.

**Q.** What about the activity at 10 µM [2] of the same molecule?
**A.** Its activity at 10 µM is 109%.

**Q.** What about the activity at 10 µM [3] of the same molecule?
**A.** Its activity at 10 µM is 100%.

**Q.** What about the viability at 10 µM [4] of the same molecule?
**A.** The viability at 10 µM was 100%.

**Q.** What about the viability at 100 µM [1] of the same molecule?
**A.** The viability at 100 µM was 3.43%.

**Q.** And the activity at 100 µM [2]?
**A.** Its activity at 100 µM is 74.3%.

**Q.** And the activity at 100 µM [3]?
**A.** Its activity at 100 µM is 2.03%.

**Q.** And the viability at 100 µM [4]?
**A.** The viability at 100 µM was 3.76%.

**Q.** And the viability at 0.01 µM [5]?
**A.** The viability at 0.01 µM was 95.2%.

**Q.** What about the activity at 0.01 µM [6] of the same molecule?
**A.** The activity at 0.01 µM was 95.8%.

**Q.** What about the activity at 0.01 µM [7] of the same molecule?
**A.** The activity at 0.01 µM was 97.8%.

**Q.** What about the viability at 0.01 µM [8] of the same molecule?
**A.** Its viability at 0.01 µM is 97.4%.

**Q.** And the viability at 0.1 µM [5]?
**A.** Its viability at 0.1 µM is 102%.

**Q.** And the activity at 0.1 µM [6]?
**A.** The activity at 0.1 µM was 88.6%.

**Q.** And the activity at 0.1 µM [7]?
**A.** Its activity at 0.1 µM is 104%.

**Q.** What about the viability at 0.1 µM [8] of the same molecule?
**A.** Its viability at 0.1 µM is 103%.

**Q.** What about the viability at 1 µM [5] of the same molecule?
**A.** The viability at 1 µM was 95.3%.

**Q.** What about the activity at 1 µM [6] of the same molecule?
**A.** Its activity at 1 µM is 107%.

**Q.** And the activity at 1 µM [7]?
**A.** Its activity at 1 µM is 93.6%.

**Q.** What about the viability at 1 µM [8] of the same molecule?
**A.** The viability at 1 µM was 95.6%.

**Q.** And the viability at 10 µM [5]?
**A.** Its viability at 10 µM is 102%.

**Q.** And the activity at 10 µM [6]?
**A.** The activity at 10 µM was 85.8%.

**Q.** And the activity at 10 µM [7]?
**A.** Its activity at 10 µM is 103%.

**Q.** And the viability at 10 µM [8]?
**A.** The viability at 10 µM was 103%.

**Q.** What about the viability at 100 µM [5] of the same molecule?
**A.** The viability at 100 µM was 2.29%.

**Q.** And the activity at 100 µM [6]?
**A.** Its activity at 100 µM is 34.1%.

**Q.** What about the activity at 100 µM [7] of the same molecule?
**A.** Its activity at 100 µM is 0.46%.

**Q.** And the viability at 100 µM [8]?
**A.** The viability at 100 µM was 2.4%.

**Q.** And the minimal effective concentration (iPSC-CM, 1.5 h, iPSC-CM, read-out: cm.cam.90min POD)?
**A.** The minimal effective concentration was 33.8 µM.

**Q.** What about the minimal effective concentration (iPSC-CM, 1.5 h, iPSC-CM, read-out: cm.mii.90min POD) of the same molecule?
**A.** Its minimal effective concentration is 62.2 µM.

**Q.** And the minimal effective concentration (iPSC-CM, 1.5 h, iPSC-CM, read-out: cm.mito.90min POD)?
**A.** The minimal effective concentration was 29.1 µM.

**Q.** And the minimal effective concentration (iPSC-CM, 1.5 h, iPSC-CM, read-out: cm.tc.90min POD)?
**A.** Its minimal effective concentration is 28.6 µM.

**Q.** And the minimal effective concentration (iPSC-CM, 24 h, iPSC-CM, read-out: cm.cam.24hrs POD)?
**A.** Its minimal effective concentration is 37.2 µM.

**Q.** What about the minimal effective concentration (iPSC-CM, 24 h, iPSC-CM, read-out: cm.mii.24hrs POD) of the same molecule?
**A.** The minimal effective concentration was 10.8 µM.

**Q.** And the minimal effective concentration (iPSC-CM, 24 h, iPSC-CM, read-out: cm.mito.24hrs POD)?
**A.** The minimal effective concentration was 31.1 µM.

**Q.** What about the minimal effective concentration (iPSC-CM, 24 h, iPSC-CM, read-out: cm.tc.24hrs POD) of the same molecule?
**A.** The minimal effective concentration was 33.4 µM.

**Q.** Clc1ccc(Cl)c(-c2cc(Cl)ccc2Cl)c1 [PCB 52, 2,2′,5,5′-tetrachlorobiphenyl] was tested. Which minimal effective concentration (Cardiomyocyte, 1.5 h, cardiomyocytes (cm), cam, 90 min, read-out: POD cm.cam.90min) did it give?
**A.** Its minimal effective concentration is 36 µM.

**Q.** What about the minimal effective concentration (Cardiomyocyte, 1.5 h, cardiomyocytes (cm), mii, 90 min, read-out: POD cm.mii.90min) of the same molecule?
**A.** Its minimal effective concentration is 10.4 µM.

**Q.** What about the minimal effective concentration (Cardiomyocyte, 1.5 h, cardiomyocytes (cm), mito, 90 min, read-out: POD cm.mito.90min) of the same molecule?
**A.** Its minimal effective concentration is 39.2 µM.

**Q.** What about the minimal effective concentration (Cardiomyocyte, 1.5 h, cardiomyocytes (cm), tc, 90 min, read-out: POD cm.tc.90min) of the same molecule?
**A.** The minimal effective concentration was 38.9 µM.

**Q.** What about the minimal effective concentration (Cardiomyocyte, 24 h, cardiomyocytes (cm), cam, 24 hrs, read-out: POD cm.cam.24hrs) of the same molecule?
**A.** The minimal effective concentration was 7.5 µM.

**Q.** What about the minimal effective concentration (Cardiomyocyte, 24 h, cardiomyocytes (cm), mii, 24 hrs, read-out: POD cm.mii.24hrs) of the same molecule?
**A.** The minimal effective concentration was 34.4 µM.

**Q.** What about the minimal effective concentration (Cardiomyocyte, 24 h, cardiomyocytes (cm), mito, 24 hrs, read-out: POD cm.mito.24hrs) of the same molecule?
**A.** The minimal effective concentration was 7.32 µM.

**Q.** What about the minimal effective concentration (Cardiomyocyte, 24 h, cardiomyocytes (cm), tc, 24 hrs, read-out: POD cm.tc.24hrs) of the same molecule?
**A.** The minimal effective concentration was 8.11 µM.
